Assays:
Assay type in all cases: cell-based
Escherichia coli [1] = assay: Molecular phenotypic antimicrobial susceptibility test (extraction or DNA purification prior to PCR)
Method in brief: (§1)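 Semi-quantitative PCR read-out: growth was taken as resistance and its absence as sensitivity, with DNA either purified (e.g. bead-based) or amplified directly from lysed sample without extraction. Before PCR, 0.5 McFarland dilutions of incubated clinical specimens were held 12-16 hours with breakpoint-level antimicrobials in culture media, beside a drug-free control.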

Escherichia coli [2] = assay: Traditional culture-based antimicrobial susceptibility test
From the text: Table 3 illustrates the results of an example antimicrobial agent susceptibility test of the current application versus a traditional culture-based antimicrobial agent susceptibility test for multiple Escherichia coli isolates, in accordance with one or more embodiments of the disclosure. These specimens underwent extraction or DNA purification prior to PCR. As in Tables 1 and 2, the results of the test of the current application are similar to the results from the traditional test. […]
Table 8 illustrates the results of an example antimicrobial agent susceptibility test of the current application versus a traditional culture-based antimicrobial agent susceptibility test for a low level positive with <10,000 cells/mL in the original specimen. These specimens were tested with direct PCR (e.g., no extraction DNA purification step prior to PCR) after 16 hours of incubation. As in Tables 1, 2, 3, 5, and 7, the results of the test are similar to the traditional test. […]

[3] = tested on: pathogens of clinical samples; assay: Molecular phenotypic antimicrobial susceptibility test of clinical samples, extraction DNA purification step prior to PCR (Table 6)
Method in brief: as §1

[4] = tested on: pathogens of clinical samples; assay: Molecular phenotypic antimicrobial susceptibility test of clinical samples, direct PCR without a separate DNA purification step (Table 6)
Method in brief: as §1

[5] = E. coli, clinical sample of r10-r24
[6] = E. coli, clinical sample of r158-r172
[7] = K. aerogenes, clinical sample of r136-r150
[8] = K. pneumoniae, clinical sample of r121-r135
[9] = M. morganii, clinical sample of r55-r69
[10] = M. morganii, clinical sample of r70-r84
[11] = P. mirabilis, clinical sample of r25-r39
[12] = P. mirabilis, clinical sample of r40-r54

## CO/N=C(\C(=O)N[C@@H]1C(=O)N2C(C(=O)[O-])=C(C[N+]3(C)CCCC3)CS[C@H]12)c1csc(N)n1 [Cefepime]
Escherichia coli [1]; E. coli isolate 4, Ct at control (average) 17.5733
  Ct at Sensitive Breakpoint: 17.09
Escherichia coli [1]; E. coli isolate 4, at sensitive breakpoint
  Molecular Antimicrobial Susceptibility Result: Resistant
Escherichia coli [1]; E. coli isolate 5, Ct at control (average) 21.0933
  Ct at Sensitive Breakpoint: 26.77
Escherichia coli [1]; E. coli isolate 5, at sensitive breakpoint
  Molecular Antimicrobial Susceptibility Result: Sensitive (Antimicrobial wells with pathogen load detected below the control wells (typically >2 cycle thresholds later) may be reported as Sensitive)
Escherichia coli [2]; E. coli isolate 4 (Table 3)
  Traditional Culture Result: Resistant
Escherichia coli [2]; E. coli isolate 5 (Table 3)
  Traditional Culture Result: Sensitive
Escherichia coli [2]; E. coli isolate JJ1887
  Traditional Culture Result: Resistant
[3]; [5]
  Molecular Antibiotic Susceptibility Result: Sensitive (Antimicrobial wells with pathogen load detected below the control wells (typically >2 cycle thresholds later) may be reported as Sensitive)
[3]; [6]
  Molecular Antibiotic Susceptibility Result: Sensitive (Antimicrobial wells with pathogen load detected below the control wells (typically >2 cycle thresholds later) may be reported as Sensitive)
[3]; [7]
  Molecular Antibiotic Susceptibility Result: Sensitive (Antimicrobial wells with pathogen load detected below the control wells (typically >2 cycle thresholds later) may be reported as Sensitive)
[3]; [8]
  Molecular Antibiotic Susceptibility Result: Sensitive (Antimicrobial wells with pathogen load detected below the control wells (typically >2 cycle thresholds later) may be reported as Sensitive)
[3]; [9]
  Molecular Antibiotic Susceptibility Result: Sensitive (Antimicrobial wells with pathogen load detected below the control wells (typically >2 cycle thresholds later) may be reported as Sensitive)
[3]; [10]
  Molecular Antibiotic Susceptibility Result: Sensitive (Antimicrobial wells with pathogen load detected below the control wells (typically >2 cycle thresholds later) may be reported as Sensitive)
[3]; [11]
  Molecular Antibiotic Susceptibility Result: Sensitive (Antimicrobial wells with pathogen load detected below the control wells (typically >2 cycle thresholds later) may be reported as Sensitive)
[3]; [12]
  Molecular Antibiotic Susceptibility Result: Sensitive (Antimicrobial wells with pathogen load detected below the control wells (typically >2 cycle thresholds later) may be reported as Sensitive)
[4]; [5]
  Molecular Antibiotic Susceptibility Result: Sensitive (Antimicrobial wells with pathogen load detected below the control wells (typically >2 cycle thresholds later) may be reported as Sensitive)
[4]; [6]
  Molecular Antibiotic Susceptibility Result: Sensitive (Antimicrobial wells with pathogen load detected below the control wells (typically >2 cycle thresholds later) may be reported as Sensitive)
[4]; [7]
  Molecular Antibiotic Susceptibility Result: Sensitive (Antimicrobial wells with pathogen load detected below the control wells (typically >2 cycle thresholds later) may be reported as Sensitive)
[4]; [8]
  Molecular Antibiotic Susceptibility Result: Sensitive (Antimicrobial wells with pathogen load detected below the control wells (typically >2 cycle thresholds later) may be reported as Sensitive)
[4]; [9]
  Molecular Antibiotic Susceptibility Result: Sensitive (Antimicrobial wells with pathogen load detected below the control wells (typically >2 cycle thresholds later) may be reported as Sensitive)
[4]; [10]
  Molecular Antibiotic Susceptibility Result: Sensitive (Antimicrobial wells with pathogen load detected below the control wells (typically >2 cycle thresholds later) may be reported as Sensitive)
[4]; [11]
  Molecular Antibiotic Susceptibility Result: Sensitive (Antimicrobial wells with pathogen load detected below the control wells (typically >2 cycle thresholds later) may be reported as Sensitive)
[4]; [12]
  Molecular Antibiotic Susceptibility Result: Sensitive (Antimicrobial wells with pathogen load detected below the control wells (typically >2 cycle thresholds later) may be reported as Sensitive)

Source: patent US20250290117A1, “MOLECULAR PHENOTYPIC ANTIMICROBIAL SUSCEPTIBILITY TESTING” (priority 2024, published 2025)
